Experimental data: ChEMBL document CHEMBL3046404, “The cytotoxic effects of diketopiperaizes against Leishmania donovani promastigotes and amastigotes” (Med Chem Res, 2013); call rule not given here
≈ marks a conversion by molar mass, not a printed value.

Tests used:
Leishmania donovani [1] = assay: Antileishmanial activity against promastigote form of Leishmania donovani MHOH/IN/1983/AG83 after 2 hr by MTT assay; type: functional, organism-based
[2] = Toxicity against BALB/c Mus musculus (mouse) peritoneal macrophages assessed as concentration required for cell lysis after 48 hr; type: cell-based, Peritoneal macrophage cell; details: read-out: Activity
Leishmania donovani [3] = assay: microbe, parasite or virus in culture; details: MHOH/IN/1983/AG83, 48 h
Description: Antileishmanial activity against amastigote form of Leishmania donovani MHOH/IN/1983/AG83 infected BALB/c mouse peritoneal macrophages after 48 hr by Geimsa staining method

Leishmania donovani [4] = assay: Antileishmanial activity against promastigote form of Leishmania donovani MHOH/IN/1983/AG83 infected in BALB/c mouse assessed as reduction in parasite burden in liver at 10 mg/kg, ip administered 1 month post-infection 2 times per week for 30 days relative to control; type: functional; design: scale not given: the % may be the effect or the level left; details: route intraperitoneal
Leishmania donovani [5] = assay: Antileishmanial activity against promastigote form of Leishmania donovani MHOH/IN/1983/AG83 infected BALB/c mouse assessed as spleen weight at 10 mg/kg, ip administered 1 month post-infection 2 times per week for 30 days (reference value: 509 +/- 25 mg); type: functional; details: route intraperitoneal
Leishmania donovani [6] = assay: Antileishmanial activity against amastigote form of Leishmania donovani MHOH/IN/1983/AG83 infected BALB/c mouse peritoneal macrophages at 10 ug/ml after 48 hr by Geimsa staining method relative to control; type: functional
Leishmania donovani [7] = assay: Antileishmanial activity against promastigote form of Leishmania donovani MHOH/IN/1983/AG83 infected in BALB/c mouse assessed as reduction in parasite burden in spleen at 10 mg/kg, i.p. administered 1 month post-infection 2 times per week for 30 days relative to control; type: functional; design: scale not given: the % may be the effect or the level left; details: route intraperitoneal
Mus musculus [8] = assay: Toxicity against BALB/c Mus musculus (mouse) assessed as blood urea level at 10 mg/kg, ip administered 2 times per week for 30 days (reference value: 29 +/- 6 mg/dl); type: organism-based; design: dose 10 mg/kg, route intraperitoneal; details: in vivo, 720 h
Mus musculus [9] = assay: Toxicity against BALB/c Mus musculus (mouse) assessed as SGOT level at 10 mg/kg, ip administered 2 times per week for 30 days (reference value: 71 +/- 4 IU/l); type: organism-based; design: dose 10 mg/kg, route intraperitoneal; details: in vivo, 720 h
Mus musculus [10] = assay: Toxicity against BALB/c Mus musculus (mouse) assessed as SGPT level at 10 mg/kg, ip administered 2 times per week for 30 days (reference value: 28 +/- 5 IU/l); type: organism-based; design: dose 10 mg/kg, route intraperitoneal; details: in vivo, 720 h
Leishmania donovani [11] = assay: Antileishmanial activity against promastigote form of Leishmania donovani MHOH/IN/1983/AG83 infected BALB/c mouse assessed as liver weight at 10 mg/kg, ip administered 1 month post-infection 2 times per week for 30 days (reference value: 1,746 +/- 56 mg); type: functional; details: route intraperitoneal
Leishmania donovani [12] = assay: Antileishmanial activity against promastigote form of Leishmania donovani MHOH/IN/1983/AG83 infected BALB/c mouse assessed as reduction in parasite burden in liver at 250 mg/kg, ip administered 1 month post-infection 2 times per week for 30 days relative to control; type: functional, organism-based; design: dose 250 mg/kg; scale not given: the % may be the effect or the level left
Leishmania donovani [13] = assay: Antileishmanial activity against promastigote form of Leishmania donovani MHOH/IN/1983/AG83 infected BALB/c mouse assessed as reduction in parasite burden in spleen at 250 mg/kg, ip administered 1 month post-infection 2 times per week for 30 days relative to control; type: functional, organism-based; design: dose 250 mg/kg; scale not given: the % may be the effect or the level left
Leishmania donovani [14] = assay: Antileishmanial activity against promastigote form of Leishmania donovani MHOH/IN/1983/AG83 infected BALB/c mouse assessed as liver weight at 250 mg/kg, ip administered 1 month post-infection 2 times per week for 30 days (reference value: 1,746 +/- 56 mg); type: functional, organism-based; design: dose 250 mg/kg
Leishmania donovani [15] = assay: Antileishmanial activity against promastigote form of Leishmania donovani MHOH/IN/1983/AG83 infected BALB/c mouse assessed as spleen weight at 250 mg/kg, ip administered 1 month post-infection 2 times per week for 30 days (reference value: 509 +/- 25 mg); type: functional, organism-based; design: dose 250 mg/kg
Leishmania donovani [16] = assay: Antileishmanial activity against promastigote form of Leishmania donovani MHOH/IN/1983/AG83 infected BALB/c mouse assessed as spleen weight at 4 mg/kg, ip administered 1 month post-infection 2 times per week for 30 days (reference value: 509 +/- 25 mg); type: functional; details: route intraperitoneal
Leishmania donovani [17] = assay: Antileishmanial activity against promastigote form of Leishmania donovani MHOH/IN/1983/AG83 infected BALB/c mouse assessed as reduction in parasite burden in liver at 4.5 mg/kg, ip administered 1 month post-infection 2 times per week for 30 days relative to control; type: functional; design: scale not given: the % may be the effect or the level left; details: route intraperitoneal
Leishmania donovani [18] = assay: Antileishmanial activity against promastigote form of Leishmania donovani MHOH/IN/1983/AG83 infected in BALB/c mouse assessed as reduction in parasite burden in spleen at 4.5 mg/kg, i.p. administered 1 month post-infection 2 times per week for 30 days relative to control; type: functional; design: scale not given: the % may be the effect or the level left; details: route intraperitoneal
Mus musculus [19] = assay: Toxicity against BALB/c Mus musculus (mouse) assessed as blood urea level at 4 mg/kg, ip administered 2 times per week for 30 days (reference value: 29 +/- 6 mg/dl); type: organism-based; design: dose 4 mg/kg, route intraperitoneal; details: in vivo, 720 h
Mus musculus [20] = assay: Toxicity against BALB/c Mus musculus (mouse) assessed as SGOT level at 4 mg/kg, ip administered 2 times per week for 30 days (reference value: 71 +/- 4 IU/l); type: organism-based; design: dose 4 mg/kg, route intraperitoneal; details: in vivo, 720 h
Mus musculus [21] = assay: Toxicity against BALB/c Mus musculus (mouse) assessed as SGPT level at 4 mg/kg, ip administered 2 times per week for 30 days (reference value: 28 +/- 5 IU/l); type: organism-based; design: dose 4 mg/kg, route intraperitoneal; details: in vivo, 720 h
Leishmania donovani [22] = assay: Antileishmanial activity against promastigote form of Leishmania donovani MHOH/IN/1983/AG83 infected BALB/c mouse assessed as liver weight at 4 mg/kg, ip administered 1 month post-infection 2 times per week for 30 days (reference value: 1,746 +/- 56 mg); type: functional; details: route intraperitoneal
[23] = Leishmania donovani, MHOH/IN/1983/AG83, 2 h, read-out: IC50

Row | IC50 (Leishmania donovani [3]) [µg/mL] | Compound | IC50 (Leishmania donovani [1]; [23]) [µg/mL] | MCC at 48 h [2] [µg/mL] | Activity (Leishmania donovani [5]) [mg] | Activity (Mus musculus [8]) [mg/dL] | Activity (Mus musculus [9]) [IU/L] | Activity (Mus musculus [10]) [IU/L] | other results
1 | 4.3 (≈ 10.6 µM) | O=C1CN(c2cccc(Cl)c2Cl)C(=O)CN1c1cccc(Cl)c1Cl | 2.2 (≈ 5.44 µM) | > 50 | – | – | – | – | –
2 | 1.1 (≈ 3.95 µM) | O=C1CN(C2CCCCC2)C(=O)CN1C1CCCCC1 | 0.7 (≈ 2.51 µM) | > 50 | 139 | 31 | 73 | 30 | Activity (Leishmania donovani [4]): 81.74%; Activity (Leishmania donovani [6]): 84.66%; Activity (Leishmania donovani [7]): 80.95%; Activity (Leishmania donovani [11]): 1076 mg
3 | 2.8 (≈ 8.22 µM) | N=C(N)c1ccc(OCCCCCOc2ccc(C(=N)N)cc2)cc1 [PENTAMIDINE] | 2.1 (≈ 6.17 µM) | > 90 | – | – | – | – | –
4 | 0.61 (≈ 1.82 µM) | O=C1CN(c2ccccc2Cl)C(=O)CN1c1ccccc1Cl | 1.02 (≈ 3.04 µM) | > 25 | 106 | 30 | 72 | 28 | Activity (Leishmania donovani [4]): 80.37%; Activity (Leishmania donovani [6]): 92%; Activity (Leishmania donovani [7]): 71.81%; Activity (Leishmania donovani [11]): 976 mg
5 | 1.8 (≈ 6.12 µM) | Cc1ccc(N2CC(=O)N(c3ccc(C)cc3)CC2=O)cc1 | 1.1 (≈ 3.74 µM) | > 40 | 184 | 34 | 75 | 33 | Activity (Leishmania donovani [11]): 1127 mg
6 | – | SODIUM ANTIMONY GLUCONATE | – | – | – | – | – | – | Activity (Leishmania donovani [12]): 57.7%; Activity (Leishmania donovani [13]): 60.2%; Activity (Leishmania donovani [14]): 1320 mg; Activity (Leishmania donovani [15]): 303 mg
7 | – | COc1ccc(Cl)cc1N1CC(=O)N(c2cc(Cl)ccc2OC)CC1=O | – | > 100 | – | – | – | – | IC50 (Leishmania donovani [1]): Not Active
8 | > 10 | O=C1CN(c2c(Cl)cc(Cl)cc2Cl)C(=O)CN1c1c(Cl)cc(Cl)cc1Cl | 9.4 (≈ 19.9 µM) | > 70 | – | – | – | – | –
9 | 0.53 (≈ 1.58 µM) | O=C1CN(c2cccc(Cl)c2)C(=O)CN1c1cccc(Cl)c1 | 1 (≈ 2.98 µM) | > 25 | 87 | 29 | 67 | 28 | Activity (Leishmania donovani [4]): 94.75%; Activity (Leishmania donovani [16]): 155 mg; Activity (Leishmania donovani [17]): 69.73%; Activity (Leishmania donovani [6]): 92.19%; Activity (Leishmania donovani [7]): 91.35%; Activity (Leishmania donovani [18]): 67.97%; Activity (Mus musculus [19]): 28 mg/dL; Activity (Mus musculus [20]): 69 IU/L; Activity (Mus musculus [21]): 29 IU/L; Activity (Leishmania donovani [22]): 1134 mg
10 | 2.2 (≈ 6.74 µM) | COc1ccc(N2CC(=O)N(c3ccc(OC)cc3)CC2=O)cc1 | 21.8 (≈ 66.8 µM) | > 60 | – | – | – | – | –
11 | 6.4 (≈ 15.8 µM) | O=C1CN(c2ccc(Cl)cc2Cl)C(=O)CN1c1ccc(Cl)cc1Cl | 2.9 (≈ 7.18 µM) | > 35 | – | – | – | – | –
12 | 6.6 (≈ 16.3 µM) | O=C1CN(c2cc(Cl)ccc2Cl)C(=O)CN1c1cc(Cl)ccc1Cl | 2.6 (≈ 6.43 µM) | > 60 | – | – | – | – | –
13 | 2 (≈ 5.71 µM) | CC(=O)c1cccc(N2CC(=O)N(c3cccc(C(C)=O)c3)CC2=O)c1 | 3.4 (≈ 9.7 µM) | > 50 | – | – | – | – | –
14 | 1.6 (≈ 6.01 µM) | O=C1CN(c2ccccc2)C(=O)CN1c1ccccc1 | 1.4 (≈ 5.26 µM) | > 30 | 166 | 32 | 74 | 34 | Activity (Leishmania donovani [11]): 999 mg

Row | Compound | IC50 (Leishmania donovani [3]) [µg/mL] | IC50 (Leishmania donovani [1]; [23]) [µg/mL] | MCC at 48 h [2] [µg/mL] | Activity (Leishmania donovani [5]) [mg] | Activity (Mus musculus [8]) [mg/dL] | Activity (Mus musculus [9]) [IU/L] | Activity (Mus musculus [10]) [IU/L] | other results
15 | C[C@@H]1[C@H](O)[C@@H](C)/C=C/C=C/C=C/C=C/C=C/C=C/C=C/[C@H](O[C@@H]2O[C@H](C)[C@@H](O)[C@H](N)[C@@H]2O)C[C@@H]2O[C@](O)(C[C@@H](O)C[C@@H](O)[C@H](O)CC[C@@H](O)C[C@@H](O)CC(=O)O[C@H]1C)C[C@H](O)[C@H]2C(=O)O [AMPHOTERICIN B] | 0.1 (≈ 0.108 µM) | – | > 4 | – | – | – | – | –
